# Measured values published in US7723473B2, “Peptide antagonists of TGF-beta family members and therapeutic uses thereof” (St. Louis University, priority 1997, dated 2010).
# What was measured:
# TGF-β receptors [1] = assay: Inhibition of specific binding of 125I-TGF-β1 to TGF-β receptors in mink lung epithelial cells; conditions: for inhibition of 125I-TGF-β1 binding to TGF-β receptors (in words): various concentrations, FIG. 1D / control experiments; for effect on 125I-TGF-β1 binding to TGF-β receptors: even at a concentration of 136 μM; for IC50: 0.1 nM 125I-TGF-β1, 2.5 hr at 0° C., read-out: IC50 for inhibiting 125I-TGF-β1 binding to TGF-β receptors; for IC50 lower than that of peptide β1^25 (41-65) prior to conjugation: 125I-TGF-β1 binding; for TGF-β antagonist activity compared with the cysteine-containing peptides: C44S/C48S versions
# Experimental: Specific binding of ^125I-labeled TGF-β1, TGF-β2, and TGF-β3 (^125I-TGF-β1, ^125I-TGF-β2, and ^125I-TGF-β3) to TGF-β receptors in mink lung epithelial cells. ^125I-TGF-β1, ^125I-TGF-β2, and ^125I-TGF-β3 were prepared by iodination of TGF-β1, TGF-β2, and TGF-β3 with Na^125I as described previously (Ref. 7). The specific radioactivities of ^125I-TGF-β1, ^125I-TGF-β2, and ^125I-TGF-β3 were 1-3×10^5 cpm/ng. Mink lung epithelial cells were grown on 24-well clustered dishes to near confluence in Dulbecco's modified Eagle medium (DMEM) containing 10% fetal calf serum. The epithelial cells were incubated with 0.1 nM ^125I-TGF-β1, ^125I-TGF-β2, or ^125I-TGF-β3 both with and without 100-fold excess of unlabeled TGF-β1, TGF-β2, or TGF-β3 in binding buffer (Ref. 7). After 2.5 hr at 0° C., the cells were washed two times with binding buffer, and the cell-associated radioactivity was determined. […] All experiments were carried out in triplicate cell cultures.
# type V TGF-β receptor = type V TGF-β receptor (Homo sapiens, UniProt Q07954); conditions: Ref. 6; read-out: Kd for binding to the type V TGF-β receptor; cited from earlier work
# PAI-1 expression = PAI-1 expression in mink lung epithelial cells (Northern blot); assay type: cell-based; conditions: conjugates alone, data not shown
# Experimental: RNA Analysis—Mink lung epithelial cells were grown overnight in 12-well clustered dishes in DMEM containing 10% fetal calf serum. The medium was then changed to DMEM containing 0.1% fetal calf serum and the cells were incubated with 0.25 and 2.5 ρM TGF-β1 in the presence of various concentrations of peptide β1^25 (41-65) for 2.5 hr. Total cellular RNA was extracted using RNAzol B (Tel-Test Inc.) according to the manufacturer's protocol. RNA was electrophoresed in 1.2% agarose-formaldehyde gel and transferred to Duralon-UV membranes using 10×SSC. The membranes were probed at 42° C. with a random-primed, radiolabeled 1-kb fragment from the Hind III and NeoI digests of PAI-1 cDNA and glyceraldehyde-3-phosphate dehydrogenase (“GAPDH”) cDNA. The blots were washed with 0.1×SSC containing 0.1% SDS at room temperature.
# [2] = tested on: mink lung epithelial cells; assay: Mink lung epithelial cell growth measured by DNA synthesis without added TGF-β1 (agonist activity); assay type: cell-based; conditions: for EC50: no added TGF-β1, read-out: ED50 of growth inhibition as measured by DNA synthesis
# Experimental: [Methyl-^3H]thymidine Incorporation—Mink lung epithelial cells grown on 24-well clustered dishes were incubated with various concentrations of TGF-β1 in the presence and absence of peptide β1^25 (41-65) or with various concentrations of peptide β1^25 (41-65)-CA, and peptide β1^25 (41-65)-BSA in DMEM containing 0.1% fetal calf serum. After 16 hr at 37° C., the cells were pulsed with 1 μCi/ml of [methyl-^3H]thymidine for 4 hr. The cells were then washed twice with 1 ml of 10% trichloroacetic acid and once with 0.5 ml of ethanol:ether (2:1, v/v). The cells were then dissolved in 0.4 ml of 0.2 N NaOH and counted with a liquid scintillation counter.
# TGF-β receptors [3] = assay: Inhibition of specific binding of 125I-TGF-β3 to TGF-β receptors in mink lung epithelial cells; conditions: 0.1 nM 125I-TGF-β3, 2.5 hr at 0° C.; read-out: IC50 for inhibiting 125I-TGF-β3 binding to TGF-β receptors
# Experimental: (§1) Specific binding of ^125I-labeled TGF-β1, TGF-β2, and TGF-β3 (^125I-TGF-β1, ^125I-TGF-β2, and ^125I-TGF-β3) to TGF-β receptors in mink lung epithelial cells. ^125I-TGF-β1, ^125I-TGF-β2, and ^125I-TGF-β3 were prepared by iodination of TGF-β1, TGF-β2, and TGF-β3 with Na^125I as described previously (Ref. 7). The specific radioactivities of ^125I-TGF-β1, ^125I-TGF-β2, and ^125I-TGF-β3 were 1-3×10^5 cpm/ng. Mink lung epithelial cells were grown on 24-well clustered dishes to near confluence in Dulbecco's modified Eagle medium (DMEM) containing 10% fetal calf serum. The epithelial cells were incubated with 0.1 nM ^125I-TGF-β1, ^125I-TGF-β2, or ^125I-TGF-β3 both with and without 100-fold excess of unlabeled TGF-β1, TGF-β2, or TGF-β3 in binding buffer (Ref. 7). After 2.5 hr at 0° C., the cells were washed two times with binding buffer, and the cell-associated radioactivity was determined. The specific binding of ^125I-labeled TGF-β isoforms to TGF-β receptors in the cells was calculated by subtracting non-specific binding (in the presence of 100-fold excess of the unlabeled TGF-β isoforms) from total binding. All experiments were carried out in triplicate cell cultures.
# TGF-β receptors [4] = assay: Inhibition of specific binding of 125I-TGF-β2 to TGF-β receptors in mink lung epithelial cells; conditions: 0.1 nM 125I-TGF-β2, 2.5 hr at 0° C.; read-out: IC50 for inhibiting 125I-TGF-β2 binding to TGF-β receptors
# Experimental: as §1
# [5] = tested on: type V TGF-β receptor (TβR-V); assay: 125I-TGF-β1-affinity labeling of cell-surface type V TGF-β receptor in mink lung epithelial cells; assay type: binding; conditions: various concentrations, FIG. 2 lanes 2-5
# Experimental: ^125I-TGF-β1-affinity labeling of cell-surface TGF-β receptors in mink lung epithelial cells. Mink lung epithelial cells grown on 60-mm Petri dishes were incubated with 0.1 nM […] the presence of various concentrations of peptide β1^25 (41-65) or peptide β3^25 (41-65) in binding buffer. After 2.5 hr at 0° C., ^125I-TGF-β1-affinity labeling was carried out in the presence of DSS as described. The ^125I-TGF-β1-affinity-labeled TGF-β receptors were analyzed by 5% SDS-polyacrylamide gel electrophoresis under reducing conditions and autoradiography.
# [6] = Stability in solution or gel during storage; assay type: physicochemical; conditions: compared with cysteine-containing peptides
# Description: Preparation of peptides. The amino acid sequences of all peptides were derived from those of TGF-β1, TGF-β2, and TGF-β3. For peptides β1^25 (41-65), β2^25 (41-65), and β3^25 (41-65), other versions in which cysteine-44 and cysteine-48 were replaced by serine residues were also synthesized. […] The C44S/C48S version of peptide β1^25 (41-65) is designated SEQ ID NO:12, the C44S/C48S version of the peptide β2^25 (41-65) is designated SEQ ID NO: 13, and the C44S/C48S version of peptide of β3^25 (41-65) is designated SEQ ID NO:14. […] The peptides were synthesized using tert-butoxycarbonyl chemistry on an Applied Biosystems Model 431A peptide synthesizer and purified using Sephadex G-25 column chromatography and reverse-phase HPLC (C-8 column). The purity of the synthesized peptides were verified by automated Edman degradation on an Applied Biosystems Model 477A gas/liquid phase protein sequenator with an on-line Applied Biosystems Model 120A phenylthiohydantoin amino acid analyzer. The purity of all peptides was estimated to be ≧95%.
# Preparation of IntraSite® gel containing TGF-β peptantagonist (peptide TGF-beta antagonist). 1 ml of sterile 6 mM peptide β1^25 (41-65) in phosphate buffered saline or 1 ml of sterile phosphate buffered saline was vigorously mixed with 3 ml of IntraSite® gel using two 10 ml syringes connected with a three-way connector. […] However, 1.5 mM of peptide β1^25 (41-65) was used throughout the experiments described below.
# type V TGF-β receptor, sequence (Q07954 20-4544): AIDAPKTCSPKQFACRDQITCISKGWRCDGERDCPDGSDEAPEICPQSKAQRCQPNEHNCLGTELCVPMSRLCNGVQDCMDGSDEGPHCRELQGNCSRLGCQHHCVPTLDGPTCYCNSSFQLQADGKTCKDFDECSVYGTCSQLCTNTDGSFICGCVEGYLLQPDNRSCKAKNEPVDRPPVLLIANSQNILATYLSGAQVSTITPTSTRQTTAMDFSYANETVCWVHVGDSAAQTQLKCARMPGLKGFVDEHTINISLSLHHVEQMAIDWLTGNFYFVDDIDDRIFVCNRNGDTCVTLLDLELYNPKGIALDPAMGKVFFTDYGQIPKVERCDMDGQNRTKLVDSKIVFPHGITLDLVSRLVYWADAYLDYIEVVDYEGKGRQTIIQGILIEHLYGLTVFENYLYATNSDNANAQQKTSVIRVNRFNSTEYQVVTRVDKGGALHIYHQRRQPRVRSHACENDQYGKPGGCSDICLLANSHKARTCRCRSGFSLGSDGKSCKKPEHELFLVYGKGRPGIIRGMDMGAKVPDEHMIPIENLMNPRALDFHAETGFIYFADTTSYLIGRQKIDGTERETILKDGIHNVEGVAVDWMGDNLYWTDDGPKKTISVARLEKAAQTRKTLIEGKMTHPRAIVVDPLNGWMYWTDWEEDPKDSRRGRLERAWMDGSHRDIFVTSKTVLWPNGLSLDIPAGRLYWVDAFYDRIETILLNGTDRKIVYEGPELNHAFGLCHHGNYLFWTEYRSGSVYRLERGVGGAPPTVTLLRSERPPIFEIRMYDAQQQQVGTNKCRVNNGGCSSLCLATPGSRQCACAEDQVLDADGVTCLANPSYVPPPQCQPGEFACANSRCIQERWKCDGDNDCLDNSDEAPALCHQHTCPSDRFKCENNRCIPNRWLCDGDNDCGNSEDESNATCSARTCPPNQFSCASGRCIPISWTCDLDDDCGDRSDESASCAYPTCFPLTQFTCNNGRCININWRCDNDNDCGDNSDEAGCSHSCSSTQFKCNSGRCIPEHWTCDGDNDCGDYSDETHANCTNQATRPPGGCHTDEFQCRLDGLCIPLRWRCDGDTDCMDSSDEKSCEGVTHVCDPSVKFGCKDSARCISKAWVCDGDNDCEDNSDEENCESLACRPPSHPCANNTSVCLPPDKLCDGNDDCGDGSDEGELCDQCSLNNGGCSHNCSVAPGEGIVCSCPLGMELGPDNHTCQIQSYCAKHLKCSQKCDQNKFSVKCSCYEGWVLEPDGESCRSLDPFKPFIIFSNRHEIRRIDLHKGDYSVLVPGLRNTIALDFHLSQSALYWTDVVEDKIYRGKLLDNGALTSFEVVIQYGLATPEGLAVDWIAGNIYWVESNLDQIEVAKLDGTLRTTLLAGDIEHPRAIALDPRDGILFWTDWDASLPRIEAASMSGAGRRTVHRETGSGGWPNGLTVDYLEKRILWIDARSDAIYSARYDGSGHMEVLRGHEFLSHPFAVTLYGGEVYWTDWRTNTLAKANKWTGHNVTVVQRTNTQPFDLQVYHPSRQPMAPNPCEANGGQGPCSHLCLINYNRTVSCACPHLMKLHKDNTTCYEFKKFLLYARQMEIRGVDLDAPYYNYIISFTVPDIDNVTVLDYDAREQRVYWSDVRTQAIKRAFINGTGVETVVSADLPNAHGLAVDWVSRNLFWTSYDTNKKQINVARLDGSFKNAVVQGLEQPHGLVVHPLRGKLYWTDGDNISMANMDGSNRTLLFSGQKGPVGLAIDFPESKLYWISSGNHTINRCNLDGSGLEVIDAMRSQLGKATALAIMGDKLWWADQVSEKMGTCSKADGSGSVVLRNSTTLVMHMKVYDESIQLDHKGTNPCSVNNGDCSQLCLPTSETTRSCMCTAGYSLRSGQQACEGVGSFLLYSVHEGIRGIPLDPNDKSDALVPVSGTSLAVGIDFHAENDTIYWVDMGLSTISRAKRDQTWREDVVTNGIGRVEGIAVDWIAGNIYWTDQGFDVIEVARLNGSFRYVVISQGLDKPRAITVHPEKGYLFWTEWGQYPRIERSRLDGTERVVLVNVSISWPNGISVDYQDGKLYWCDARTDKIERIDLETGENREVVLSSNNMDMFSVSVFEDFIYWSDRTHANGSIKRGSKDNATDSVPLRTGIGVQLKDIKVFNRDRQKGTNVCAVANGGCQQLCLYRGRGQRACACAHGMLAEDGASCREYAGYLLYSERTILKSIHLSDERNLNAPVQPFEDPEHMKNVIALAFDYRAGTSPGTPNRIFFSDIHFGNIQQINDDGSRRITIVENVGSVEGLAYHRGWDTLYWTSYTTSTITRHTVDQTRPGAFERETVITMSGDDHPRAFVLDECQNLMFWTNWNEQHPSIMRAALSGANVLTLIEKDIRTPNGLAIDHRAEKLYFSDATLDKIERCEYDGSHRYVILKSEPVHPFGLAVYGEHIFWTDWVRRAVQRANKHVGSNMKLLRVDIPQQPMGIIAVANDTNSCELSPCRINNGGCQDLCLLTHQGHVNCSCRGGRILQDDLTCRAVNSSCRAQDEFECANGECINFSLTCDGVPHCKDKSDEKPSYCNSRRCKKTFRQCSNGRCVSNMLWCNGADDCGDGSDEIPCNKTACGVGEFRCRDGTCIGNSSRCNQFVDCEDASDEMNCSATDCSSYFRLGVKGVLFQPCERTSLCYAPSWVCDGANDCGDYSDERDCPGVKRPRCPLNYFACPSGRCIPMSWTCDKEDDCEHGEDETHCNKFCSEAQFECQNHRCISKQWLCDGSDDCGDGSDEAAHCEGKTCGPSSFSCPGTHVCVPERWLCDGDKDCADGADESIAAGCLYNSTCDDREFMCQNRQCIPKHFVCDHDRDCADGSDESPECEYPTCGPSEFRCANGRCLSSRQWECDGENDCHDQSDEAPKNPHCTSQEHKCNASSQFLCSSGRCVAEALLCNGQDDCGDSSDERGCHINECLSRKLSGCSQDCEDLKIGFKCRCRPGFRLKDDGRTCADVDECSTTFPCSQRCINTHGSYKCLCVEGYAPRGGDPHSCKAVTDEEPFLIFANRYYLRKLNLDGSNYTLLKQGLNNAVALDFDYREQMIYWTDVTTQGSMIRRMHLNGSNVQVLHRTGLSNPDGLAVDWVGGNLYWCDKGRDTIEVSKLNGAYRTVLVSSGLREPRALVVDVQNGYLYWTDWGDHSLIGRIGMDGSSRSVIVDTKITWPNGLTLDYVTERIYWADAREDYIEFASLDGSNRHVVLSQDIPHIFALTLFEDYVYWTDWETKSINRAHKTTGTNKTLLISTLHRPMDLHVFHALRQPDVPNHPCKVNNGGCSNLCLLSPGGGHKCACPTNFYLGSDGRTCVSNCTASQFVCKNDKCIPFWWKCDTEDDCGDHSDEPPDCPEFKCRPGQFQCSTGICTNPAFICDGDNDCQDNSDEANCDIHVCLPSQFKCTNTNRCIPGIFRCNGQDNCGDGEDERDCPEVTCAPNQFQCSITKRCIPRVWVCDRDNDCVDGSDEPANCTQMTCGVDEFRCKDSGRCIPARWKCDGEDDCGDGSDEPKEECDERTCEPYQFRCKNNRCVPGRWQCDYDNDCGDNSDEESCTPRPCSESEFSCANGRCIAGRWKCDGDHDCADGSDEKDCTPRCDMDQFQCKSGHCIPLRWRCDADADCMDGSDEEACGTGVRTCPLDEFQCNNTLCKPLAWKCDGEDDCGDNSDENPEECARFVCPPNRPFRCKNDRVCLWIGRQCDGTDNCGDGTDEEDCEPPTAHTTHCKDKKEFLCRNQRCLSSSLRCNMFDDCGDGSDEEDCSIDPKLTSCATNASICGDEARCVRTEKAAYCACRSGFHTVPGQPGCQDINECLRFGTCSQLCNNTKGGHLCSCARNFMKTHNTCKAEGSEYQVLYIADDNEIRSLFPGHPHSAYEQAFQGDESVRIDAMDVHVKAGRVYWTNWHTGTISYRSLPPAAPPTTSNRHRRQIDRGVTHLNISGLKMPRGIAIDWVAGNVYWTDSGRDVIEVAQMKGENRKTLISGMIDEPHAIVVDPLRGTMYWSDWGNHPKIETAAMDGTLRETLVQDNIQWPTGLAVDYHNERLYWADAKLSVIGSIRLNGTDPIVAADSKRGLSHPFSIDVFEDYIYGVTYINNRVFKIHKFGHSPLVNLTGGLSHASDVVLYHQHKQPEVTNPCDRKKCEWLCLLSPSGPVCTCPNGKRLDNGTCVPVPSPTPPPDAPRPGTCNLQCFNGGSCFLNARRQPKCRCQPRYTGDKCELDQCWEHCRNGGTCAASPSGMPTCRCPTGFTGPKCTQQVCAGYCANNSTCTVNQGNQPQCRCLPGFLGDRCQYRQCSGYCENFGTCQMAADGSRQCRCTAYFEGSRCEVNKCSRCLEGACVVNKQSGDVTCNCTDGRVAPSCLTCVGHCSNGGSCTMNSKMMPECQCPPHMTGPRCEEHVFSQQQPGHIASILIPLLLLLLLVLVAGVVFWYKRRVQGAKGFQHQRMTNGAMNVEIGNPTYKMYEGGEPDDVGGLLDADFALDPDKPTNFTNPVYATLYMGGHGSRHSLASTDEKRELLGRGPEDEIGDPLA
substance,measurement,setting,value
β3^25 (41-65) R52A/D55A (ANFCSGPCPYLASAATTHSTVLGLY),inhibition of 125I-TGF-β1 binding to TGF-β receptors (in words),TGF-β receptors [1],did not inhibit
β1^10 (49-58) D55A (PYIWSLATQY),inhibition of 125I-TGF-β1 binding to TGF-β receptors (in words),TGF-β receptors [1],similar
β1^25 (41-65) W52A/D55A (ANFCLGPCPYIASLATQYSKVLALY),inhibition of 125I-TGF-β1 binding to TGF-β receptors (in words),TGF-β receptors [1],did not inhibit
β2^10 (49-58) D55A (PYLWSSATQH),inhibition of 125I-TGF-β1 binding to TGF-β receptors (in words),TGF-β receptors [1],failed to inhibit
"TGF-β1: transforming growth factor β1, 25-kDa dimeric protein",Kd,type V TGF-β receptor,~0.4 nM
"peptide β1^25 (81-105): pentacosapeptide, residues 81-105 of human TGF-β1 (QALEPLPIVYYVGRKPKVEQLSNMI)",effect on 125I-TGF-β1 binding to TGF-β receptors,TGF-β receptors [1],did not show any effect
"β3^10 (49-58): decapeptide, residues 49-58 of TGF-β3 (SEQ ID NO:9) (PYLRSADTTH; listed as Homo sapiens)",inhibitory activity on 125I-TGF-β1 binding,TGF-β receptors [1]; concentrations up to ~300 μM,did not show any inhibitory activity
"β1^25 (41-65)-CA: peptide β1^25 (41-65) cross-linked with DSS to human carbonic anhydrase I, ~5-10 peptides per carrier protein",IC50,TGF-β receptors [1],~50 nM
same,IC50 lower than that of peptide β1^25 (41-65) prior to conjugation,TGF-β receptors [1],~20 fold
same,effects on the expression of PAI-1,PAI-1 expression,neither showed significant effects
same,growth inhibition induced by conjugate,[2]; 0.2 μM conjugate,30-40%
same,EC50,[2],~100 nM
"peptide β1^25 (31-55): pentacosapeptide, residues 31-55 of human TGF-β1 (KWIHEPKGYHANFCLGPCPYIWSLD)",effect on 125I-TGF-β1 binding to TGF-β receptors,TGF-β receptors [1],did not show any effect
"peptide β1^25 (71-95): pentacosapeptide, residues 71-95 of human TGF-β1 (GASAAPCCVPQALEPLPIVYYVGRK)",effect on 125I-TGF-β1 binding to TGF-β receptors,TGF-β receptors [1],did not show any effect
"peptide β1^25 (21-45): pentacosapeptide, residues 21-45 of human TGF-β1 (YIDFRKDLGWKWIHEPKGYHANFCL)",effect on 125I-TGF-β1 binding to TGF-β receptors,TGF-β receptors [1],did not show any effect
ANFCAGACPYLWSSDTQHSRVLSLY [peptide β2^25 (41-65)],IC50,TGF-β receptors [3],~80 nM
ANFCSGPCPYLRSADTTHSTVLGLY [peptide β3^25 (41-65)],IC50,TGF-β receptors [1],~20000 nM
same,IC50,TGF-β receptors [4],~20000 nM
same,blocking the 125I-TGF-β1-affinity labeling of the type V TGF-β receptor,[5],weak activity
β2^10 (49-58) S53A (PYLWASDTQH),IC50,TGF-β receptors [1],~40000 nM
TGF-β3: transforming growth factor β3,Kd,type V TGF-β receptor,~5 nM
"CA: carrier protein human carbonic anhydrase I conjugated without peptides, control [reference compound]",inhibition of 125I-TGF-β1 binding to TGF-β receptors (in words),TGF-β receptors [1],did not have inhibitory activity
β2^10 (49-58) W52A (PYLASSDTQH),inhibition of 125I-TGF-β1 binding to TGF-β receptors (in words),TGF-β receptors [1],failed to inhibit
SEQ ID NO:12: β1^25 (41-65) with cysteine-44 and cysteine-48 replaced by serine residues (ANFSLGPSPYIWSLDTQYSKVLALY; listed as Homo sapiens),TGF-β antagonist activity compared with the cysteine-containing peptides,TGF-β receptors [1],same TGF-β antagonist activity
same,stability in solution during storage,[6],better stability
β1^10 (49-58) S53A (PYIWALDTQY),inhibition of 125I-TGF-β1 binding to TGF-β receptors (in words),TGF-β receptors [1],similar
TGF-β2: transforming growth factor β2,Kd,type V TGF-β receptor,~0.4 nM
"peptide β1^25 (51-75): pentacosapeptide, residues 51-75 of human TGF-β1 (IWSLDTQYSKVLALYNQHNPGASAA)",effect on 125I-TGF-β1 binding to TGF-β receptors,TGF-β receptors [1],did not show any effect
SEQ ID NO: 13: β2^25 (41-65) with cysteine-44 and cysteine-48 replaced by serine residues (ANFSAGASPYLWSSDTQHSRVLSLY; Human),TGF-β antagonist activity compared with the cysteine-containing peptides,TGF-β receptors [1],same TGF-β antagonist activity
same,stability in solution during storage,[6],better stability
SEQ ID NO:14: β3^25 (41-65) with cysteine-44 and cysteine-48 replaced by serine residues (ANFSSGPSPYLRSADTTHSTVLGLY; listed as Homo sapiens),TGF-β antagonist activity compared with the cysteine-containing peptides,TGF-β receptors [1],same TGF-β antagonist activity
same,stability in solution during storage,[6],better stability
β1^10 (49-58) W52A (PYIASLDTQY),inhibition of 125I-TGF-β1 binding to TGF-β receptors (in words),TGF-β receptors [1],similar
"β1^25 (41-65)-BSA: peptide β1^25 (41-65) cross-linked with DSS to bovine serum albumin, ~5-10 peptides per carrier protein",IC50 lower than that of peptide β1^25 (41-65) prior to conjugation,TGF-β receptors [1],~20 fold
same,effects on the expression of PAI-1,PAI-1 expression,neither showed significant effects
same,EC50,[2],~100 nM
"peptide β1^25 (61-85): pentacosapeptide, residues 61-85 of human TGF-β1 (VLALYNQHNPGASAAPCCVPQALEP)",effect on 125I-TGF-β1 binding to TGF-β receptors,TGF-β receptors [1],did not show any effect
